Source: ChEMBL document CHEMBL2321873, “1-(4-Phenylpiperazin-1-yl)-2-(1H-pyrazol-1-yl)ethanones as novel CCR1 antagonists” (Bioorg Med Chem Lett, 2013)
The source made the active and inactive calls. No cut-off for these calls is given here.

Key:
[1] = biological target: T1, C-X-C chemokine receptor type 3 (Homo sapiens) (UniProt P49682); experiment: Antagonist activity at CXCR3 (unknown origin) assessed as inhibition of calcium flux at 10 uM; type: functional
T1 sequence (whole entry): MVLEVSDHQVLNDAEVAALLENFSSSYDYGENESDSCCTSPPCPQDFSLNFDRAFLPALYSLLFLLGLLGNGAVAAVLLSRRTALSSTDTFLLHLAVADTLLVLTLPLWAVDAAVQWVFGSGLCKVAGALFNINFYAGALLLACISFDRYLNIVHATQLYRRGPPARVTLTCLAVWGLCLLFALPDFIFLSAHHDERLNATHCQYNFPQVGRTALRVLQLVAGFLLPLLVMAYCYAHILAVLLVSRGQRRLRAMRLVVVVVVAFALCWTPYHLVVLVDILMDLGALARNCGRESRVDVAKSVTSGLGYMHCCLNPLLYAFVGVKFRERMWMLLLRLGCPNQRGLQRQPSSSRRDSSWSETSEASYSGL

[2] = Half life in Sprague-Dawley rat at 1 mg/kg, iv; type: ADME, organism-based; set-up: dose 1 mg/kg, route intravenous; conditions: in vivo
[3] = biological target: T2, G protein-coupled receptor (Human herpesvirus 8) (UniProt Q76SF8); experiment: Antagonist activity at HHV8 ORF74 assessed as inhibition of calcium flux at 10 uM; type: functional; conditions: Human gammaherpesvirus 8
T2 sequence (whole entry): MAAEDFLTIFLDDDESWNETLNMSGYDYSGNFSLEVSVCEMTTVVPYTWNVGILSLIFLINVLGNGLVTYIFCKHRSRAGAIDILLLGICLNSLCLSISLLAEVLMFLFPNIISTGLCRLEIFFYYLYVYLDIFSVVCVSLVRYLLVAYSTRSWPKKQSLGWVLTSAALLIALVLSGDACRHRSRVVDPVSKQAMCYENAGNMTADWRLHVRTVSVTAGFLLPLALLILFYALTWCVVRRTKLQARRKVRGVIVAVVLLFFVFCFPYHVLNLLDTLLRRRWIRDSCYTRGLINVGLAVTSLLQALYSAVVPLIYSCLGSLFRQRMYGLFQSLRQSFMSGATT

Rattus norvegicus = experiment: Toxicity in Sprague-Dawley rat assessed as effect on blood chemistry at 70 to 360 mg/kg, po after 7 days; type: organism-based; set-up: dose 70-360 mg/kg, route oral; conditions: in vivo, 168 h
[4] = biological target: T3, C-C chemokine receptor-like 2 (Homo sapiens) (UniProt O00421); experiment: Antagonist activity at CCR11 (unknown origin) assessed as inhibition of chemotaxis at 10 uM
T3 sequence (whole entry): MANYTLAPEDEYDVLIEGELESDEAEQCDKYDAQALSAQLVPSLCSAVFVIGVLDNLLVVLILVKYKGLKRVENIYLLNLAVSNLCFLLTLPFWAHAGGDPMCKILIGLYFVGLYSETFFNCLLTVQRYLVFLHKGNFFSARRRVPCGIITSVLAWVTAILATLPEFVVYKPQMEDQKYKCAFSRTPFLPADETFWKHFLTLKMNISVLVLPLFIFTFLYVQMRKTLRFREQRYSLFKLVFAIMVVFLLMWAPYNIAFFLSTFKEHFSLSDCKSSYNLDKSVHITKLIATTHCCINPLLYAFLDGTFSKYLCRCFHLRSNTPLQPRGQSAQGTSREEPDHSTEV

[5] = biological target: T4, CX3C chemokine receptor 1 (Homo sapiens) (UniProt P49238); experiment: Binding affinity to CX3CR1 (unknown origin) at 10 uM by radioligand displacement assay
T4 sequence (whole entry): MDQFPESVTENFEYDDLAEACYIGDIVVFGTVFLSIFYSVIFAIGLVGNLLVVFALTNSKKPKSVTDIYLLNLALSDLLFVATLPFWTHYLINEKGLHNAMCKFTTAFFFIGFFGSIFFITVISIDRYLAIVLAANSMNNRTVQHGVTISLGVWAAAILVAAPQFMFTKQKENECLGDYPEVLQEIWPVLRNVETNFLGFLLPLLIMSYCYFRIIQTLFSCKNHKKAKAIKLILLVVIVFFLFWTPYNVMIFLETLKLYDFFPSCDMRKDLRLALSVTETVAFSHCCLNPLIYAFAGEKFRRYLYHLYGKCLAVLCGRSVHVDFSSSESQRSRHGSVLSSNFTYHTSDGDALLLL

[6] = biological target: C-X-C chemokine receptor type 4 (Homo sapiens) (UniProt P61073); experiment: Binding affinity to CXCR4 (unknown origin) at 10 uM by radioligand displacement assay
Chain of C-X-C chemokine receptor type 4 (Homo sapiens) (P61073 whole entry): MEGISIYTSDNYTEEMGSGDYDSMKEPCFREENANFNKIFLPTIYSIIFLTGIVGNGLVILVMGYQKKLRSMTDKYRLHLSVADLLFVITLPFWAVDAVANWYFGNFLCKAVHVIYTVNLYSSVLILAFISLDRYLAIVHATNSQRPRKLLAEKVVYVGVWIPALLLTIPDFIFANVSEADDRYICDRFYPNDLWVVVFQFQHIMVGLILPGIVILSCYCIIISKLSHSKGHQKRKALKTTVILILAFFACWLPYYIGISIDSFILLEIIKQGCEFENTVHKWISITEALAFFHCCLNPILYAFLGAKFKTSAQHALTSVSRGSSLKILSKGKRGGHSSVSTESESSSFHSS

[7] = biological target: C-C chemokine receptor type 1 (Mus musculus, UniProt P51675); experiment: Displacement of [125I]-CCL3/MIP-1alpha from CCR1 in mouse WEHI274.1 cells; type: cell-based
Chain of C-C chemokine receptor type 1 (P51675 whole entry): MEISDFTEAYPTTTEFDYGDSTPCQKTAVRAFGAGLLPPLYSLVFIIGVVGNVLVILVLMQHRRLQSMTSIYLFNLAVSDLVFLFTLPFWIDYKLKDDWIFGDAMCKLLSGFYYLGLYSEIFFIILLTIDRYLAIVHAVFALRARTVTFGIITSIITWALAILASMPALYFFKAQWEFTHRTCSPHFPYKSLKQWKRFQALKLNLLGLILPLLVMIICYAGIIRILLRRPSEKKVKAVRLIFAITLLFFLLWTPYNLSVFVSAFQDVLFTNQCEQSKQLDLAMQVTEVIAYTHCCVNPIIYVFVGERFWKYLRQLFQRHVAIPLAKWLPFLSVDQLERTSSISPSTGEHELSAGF

[8] = biological target: T5, C-C chemokine receptor type 10 (Homo sapiens) (UniProt P46092); experiment: Antagonist activity at CCR10 (unknown origin) assessed as inhibition of calcium flux at 10 uM; type: functional
T5 sequence (whole entry): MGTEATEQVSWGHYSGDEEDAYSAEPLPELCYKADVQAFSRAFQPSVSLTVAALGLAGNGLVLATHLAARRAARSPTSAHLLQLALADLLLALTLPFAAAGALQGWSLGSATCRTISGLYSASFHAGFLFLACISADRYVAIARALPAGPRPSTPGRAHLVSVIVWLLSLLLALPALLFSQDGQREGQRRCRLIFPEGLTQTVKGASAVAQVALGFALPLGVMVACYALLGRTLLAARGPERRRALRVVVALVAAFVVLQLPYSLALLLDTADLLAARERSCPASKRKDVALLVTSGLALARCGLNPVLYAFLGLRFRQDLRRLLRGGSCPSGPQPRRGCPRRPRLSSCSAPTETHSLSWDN

[9] = biological target: Atypical chemokine receptor 3 (Homo sapiens) (UniProt P25106); experiment: Antagonist activity at CXCR7 (unknown origin) assessed as inhibition of chemotaxis at 10 uM
Chain of Atypical chemokine receptor 3 (Homo sapiens) (P25106 whole entry): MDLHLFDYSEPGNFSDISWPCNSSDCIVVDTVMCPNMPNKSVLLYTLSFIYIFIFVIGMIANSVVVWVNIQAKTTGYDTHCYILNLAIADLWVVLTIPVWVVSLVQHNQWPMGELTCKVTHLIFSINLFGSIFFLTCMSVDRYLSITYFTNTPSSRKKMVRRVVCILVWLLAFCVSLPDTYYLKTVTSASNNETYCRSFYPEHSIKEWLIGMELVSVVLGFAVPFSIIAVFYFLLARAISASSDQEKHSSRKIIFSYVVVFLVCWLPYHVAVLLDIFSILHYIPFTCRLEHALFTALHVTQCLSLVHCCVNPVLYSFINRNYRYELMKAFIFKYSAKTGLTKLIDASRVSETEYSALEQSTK

[10] = biological target: T3, C-C chemokine receptor-like 2 (Homo sapiens); experiment: Antagonist activity at CCR11 (unknown origin) assessed as inhibition of calcium flux at 10 uM; type: functional
[11] = biological target: Atypical chemokine receptor 3 (Homo sapiens) (UniProt P25106); experiment: Antagonist activity at CXCR7 (unknown origin) assessed as inhibition of calcium flux at 10 uM; type: functional
[12] = biological target: T6, C-X-C chemokine receptor type 2 (Homo sapiens) (UniProt P25025); experiment: Antagonist activity at CXCR2 (unknown origin) assessed as inhibition of chemotaxis at 10 uM
T6 sequence (whole entry): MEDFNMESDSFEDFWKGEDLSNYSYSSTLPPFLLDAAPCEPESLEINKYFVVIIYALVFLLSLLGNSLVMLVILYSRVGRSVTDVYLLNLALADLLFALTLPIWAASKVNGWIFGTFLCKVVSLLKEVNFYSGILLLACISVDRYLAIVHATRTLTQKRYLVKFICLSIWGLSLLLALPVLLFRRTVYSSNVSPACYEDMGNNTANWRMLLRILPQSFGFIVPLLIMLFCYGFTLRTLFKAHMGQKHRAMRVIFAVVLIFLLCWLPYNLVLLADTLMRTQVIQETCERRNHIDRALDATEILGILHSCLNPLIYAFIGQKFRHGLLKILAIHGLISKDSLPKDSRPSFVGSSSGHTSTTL

[13] = biological target: T5, C-C chemokine receptor type 10 (Homo sapiens); experiment: Antagonist activity at CCR10 (unknown origin) assessed as inhibition of chemotaxis at 10 uM

In the case of `COc1cc(N2CCN(C(=O)Cn3nc(C(F)(F)F)c(Cl)c3C)CC2)ccc1Cl`, the inhibition [1] is reported as “inactive”, the half-life [2] is reported as 2.2 h and the inhibition [3] is reported as “inactive”. The Activity (Rattus norvegicus) was “Non-toxic”, the inhibition [4] was “inactive” and the Activity [5] was “inactive”. For the same compound, the Activity [6] was “inactive”, the IC50 [7] was 3 µM and the inhibition [8] was “inactive”. The inhibition [9] was “inactive”, the inhibition [10] was “inactive” and the inhibition [11] was “inactive”. For the same compound, the inhibition [12] was “inactive” and the inhibition [13] was “inactive”.
